Data as given in US12054483B2, “Small molecule inhibitors of DYRK/CLK and uses thereof” (Arizona Board of Regents on Behalf of the University of …, priority 2018, dated 2024).

What follows are compounds tested against DYRK1A (Homo sapiens, UniProt Q13627) (assay: Affinity testing of compounds with DYRK1A (KD)). Conditions: DYRK1A affinity key classes.
Format: binding

`CC(=O)N1C[C@@H]2[C@H](C1)[C@H]2n1c(C)nc2ccc(-c3ccnc(N)c3)nc21` [Compound 47, 1-((1R,5S,6s)-6-(5-(2-aminopyridin-4-yl)-2-methyl-3H-imidazo[4,5-b]pyridin-3-yl)-3-azabicyclo[3.1.0]hexan-3-yl)ethan-1-one] and `Cc1nc2ccc(-c3ccnc(N)c3)nc2n1-c1ccc(=O)n(C)c1` [Compound 48, 5-(5-(2-aminopyridin-4-yl)-2-methyl-3H-imidazo[4,5-b]pyridin-3-yl)-1-methylpyridin-2(1H)-one] fall in the same range of Kd: 0.5 to 100 nM for the first, 0.5 to 100 nM for the second.

`Cc1nc2ccc(-c3ccnc(N)c3)nc2n1-c1ccc2[nH]cnc2c1` [Compound 49, 4-(3-(1H-benzo[d]imidazol-5-yl)-2-methyl-3H-imidazo[4,5-b]pyridin-5-yl)pyridin-2-amine] and `Cc1cc(-c2ccc3nc(C)n(-c4ccc5[nH]cnc5c4)c3n2)ccn1` [Compound 50, 3-(1H-benzo[d]imidazol-5-yl)-2-methyl-5-(2-methylpyridin-4-yl)-3H-imidazo[4,5-b]pyridine] fall in the same range of Kd: 0.5 to 100 nM for the first, 0.5 to 100 nM for the second.

Compared with `Cc1cc(-c2ccc3nc(C)n(-c4ccc5[nH]cnc5c4)c3n2)cc(C)n1` [Compound 51, 3-(1H-benzo[d]imidazol-5-yl)-5-(2,6-dimethylpyridin-4-yl)-2-methyl-3H-imidazo[4,5-b]pyridine], `Cc1cc(-c2ccc3nc(C)n(-c4ccc(N5CCOCC5)cc4)c3n2)cc(C)n1` [Compound 53, 4-(4-(5-(2,6-dimethylpyridin-4-yl)-2-methyl-3H-imidazo[4,5-b]pyridin-3-yl)phenyl)morpholine] is higher in Kd: 101 to 500 nM for the first, 501 to 10000 nM for the second.

First: Cc1nc2ccc(-c3cc[nH]c(=O)c3)nc2n1-c1ccc(N2CCOCC2)cc1 [Compound 54, 4-(2-methyl-3-(4-morpholinophenyl)-3H-imidazo[4,5-b]pyridin-5-yl)pyridin-2(1H)-one]
Second: Cc1nc2ccc(-c3ccncc3)nc2n1-c1ccc(C(=O)N2CCOCC2)cc1 [Compound 56, (4-(2-methyl-5-(pyridin-4-yl)-3H-imidazo[4,5-b]pyridin-3-yl)phenyl)(morpholino)methanone]
The Kd of the first is higher: 501 to 10000 nM for the first, 101 to 500 nM for the second. The second binds more tightly here.

First: Cc1nc2ccc(-c3ccncc3)nc2n1-c1ccc(C(=O)N2CCN(C3COC3)CC2)cc1 [Compound 57, (4-(2-methyl-5-(pyridin-4-yl)-3H-imidazo[4,5-b]pyridin-3-yl)phenyl)(4-(oxetan-3-yl)piperazin-1-yl)methanone]
Second: Cc1nc2ccc(-c3ccncc3)nc2n1-c1ccc(CN2CCN(C3COC3)CC2)cc1 [Compound 63, 2-methyl-3-(4-((4-(oxetan-3-yl)piperazin-1-yl)methyl)phenyl)-5-(pyridin-4-yl)-3H-imidazo[4,5-b]pyridine]
The Kd of the first is higher: 101 to 500 nM for the first, 0.5 to 100 nM for the second.

`Cc1nc2ccc(-c3ccncc3)nc2n1-c1ccc(C(=O)NC2CC(F)(F)C2)cc1` [Compound 58, N-(3,3-difluorocyclobutyl)-4-(2-methyl-5-(pyridin-4-yl)-3H-imidazo[4,5-b]pyridin-3-yl)benzamide] and `Cc1nc2ccc(-c3ccncc3)nc2n1-c1ccc(CN2CCCC(F)(F)C2)cc1` [Compound 65, 3-(4-((3,3-difluoropiperidin-1-yl)methyl)phenyl)-2-methyl-5-(pyridin-4-yl)-3H-imidazo[4,5-b]pyridine] fall in the same range of Kd: 101 to 500 nM for the first, 101 to 500 nM for the second.

`c1cc(-c2ccc3nnn(-c4ccc5[nH]cnc5c4)c3n2)ccn1` [Compound 59, 3-(1H-benzo[d]imidazol-5-yl)-5-(pyridin-4-yl)-3H-[1,2,3]triazolo[4,5-b]pyridine] and `c1cc(-c2ccc3ncc(-c4ccc5[nH]ccc5c4)n3n2)ccn1` [Compound 77, 3-(1H-indol-5-yl)-6-(pyridin-4-yl)imidazo[1,2-b]pyridazine] fall in the same range of Kd: 0.5 to 100 nM for the first, 0.5 to 100 nM for the second.

`Cc1nc2ccc(-c3cc[n+]([O-])cc3)nc2n1-c1ccc2c(c1)OCO2` [Compound 60, 4-(3-(benzo[d][1,3]dioxol-5-yl)-2-methyl-3H-imidazo[4,5-b]pyridin-5-yl)-1λ^4-pyridin-2-ylium-1-olate] and `Cc1nc2ccc(-c3ccnc(C(F)F)c3)nc2n1-c1ccc2c(c1)OCO2` [Compound 61, 3-(benzo[d][1,3]dioxol-5-yl)-5-(2-(difluoromethyl)pyridin-4-yl)-2-methyl-3H-imidazo[4,5-b]pyridine] fall in the same range of Kd: 501 to 10000 nM for the first, 501 to 10000 nM for the second.

First: Cc1nc2ccc(-c3ccncc3)nc2n1-c1ncc(CN2CCCC(F)(F)C2)s1 [Compound 62, 5-((3,3-difluoropiperidin-1-yl)methyl)-2-(2-methyl-5-(pyridin-4-yl)-3H-imidazo[4,5-b]pyridin-3-yl)thiazole]
Second: Cc1nc2ccc(-c3ccncc3)nc2n1-c1ccc(CN2CCOCC2)cn1 [Compound 64, 4-((6-(2-methyl-5-(pyridin-4-yl)-3H-imidazo[4,5-b]pyridin-3-yl)pyridin-3-yl)methyl)morpholine]
The Kd of the first is lower: 0.5 to 100 nM for the first, 501 to 10000 nM for the second.

Compared with `c1cc(-c2cn3c(-c4ccc5c(c4)OCO5)cnc3cn2)ccn1` [Compound 67, 3-(benzo[d][1,3]dioxol-5-yl)-6-(pyridin-4-yl)imidazo[1,2-a]pyrazine], `COc1cccc(-c2cnc3ccc(-c4ccncc4)nn23)c1` [Compound 75, 3-(3-methoxyphenyl)-6-(pyridin-4-yl)imidazo[1,2-b]pyridazine] is higher in Kd: 0.5 to 100 nM for the first, 501 to 10000 nM for the second.

`c1cc(-c2cn3cnnc3cn2)ccn1` [Compound 68, 6-(pyridin-4-yl)-[1,2,4]triazolo[4,3-a]pyrazine] and `CN1CCN(c2cnc3ccc(-c4ccncc4)nn23)CC1` [Compound 86, 3-(4-methylpiperazin-1-yl)-6-(pyridin-4-yl)imidazo[1,2-b]pyridazine] fall in the same range of Kd: 501 to 10000 nM for the first, 501 to 10000 nM for the second.

First: COc1cnc(-c2ccnc(N)c2)nc1 [Compound 69, 4-(5-methoxypyrimidin-2-yl)pyridin-2-amine]
Second: COc1cnc(-c2ccncc2)nc1 [Compound 70, 5-methoxy-2-(pyridin-4-yl)pyrimidine]
The Kd of the first is lower: 101 to 500 nM for the first, 501 to 10000 nM for the second.

First: Cc1nc2cc(-c3ccnc(N)c3)cnc2[nH]1 [Compound 71, 4-(2-methyl-3H-imidazo[4,5-b]pyridin-6-yl)pyridin-2-amine]
Second: Cc1cc(-c2ccc3ncc(-c4ccc(N5CCOCC5)nc4)n3n2)ccn1 [Compound 80, 4-(5-(6-(2-methylpyridin-4-yl)imidazo[1,2-b]pyridazin-3-yl)pyridin-2-yl)morpholine]
The Kd of the first is lower: 0.5 to 100 nM for the first, 101 to 500 nM for the second.

`COC(=O)c1ccc(-c2cnc3ccc(-c4ccncc4)nn23)cc1` [Compound 72, methyl 4-(6-(pyridin-4-yl)imidazo[1,2-b]pyridazin-3-yl)benzoate] and `CN1CCN(c2ccc(-c3cnc4ccc(-c5ccncc5)nn34)cn2)CC1` [Compound 87, 3-(6-(4-methylpiperazin-1-yl)pyridin-3-yl)-6-(pyridin-4-yl)imidazo[1,2-b]pyridazine] fall in the same range of Kd: 0.5 to 100 nM for the first, 0.5 to 100 nM for the second.

First: c1cc(-c2ccc3ncc(-c4ccc(N5CCOCC5)nc4)n3n2)ccn1 [Compound 73, 4-(5-(6-(pyridin-4-yl)imidazo[1,2-b]pyridazin-3-yl)pyridin-2-yl)morpholine]
Second: c1cc(-c2ccc3ncc(-c4ccc(N5CCCCC5)nc4)n3n2)ccn1 [Compound 74, 3-(6-(piperidin-1-yl)pyridin-3-yl)-6-(pyridin-4-yl)imidazo[1,2-b]pyridazine]
The Kd of the first is lower: 0.5 to 100 nM for the first, 101 to 500 nM for the second.

`c1cc(-c2ccc3ncc(-c4ccc(N5CCNCC5)nc4)n3n2)ccn1` [Compound 76, 3-(6-(piperazin-1-yl)pyridin-3-yl)-6-(pyridin-4-yl)imidazo[1,2-b]pyridazine] and `c1cc(-c2ccc3ncc(-c4ccc(N5CCN(C6COC6)CC5)nc4)n3n2)ccn1` [Compound 83, 3-(6-(4-(oxetan-3-yl)piperazin-1-yl)pyridin-3-yl)-6-(pyridin-4-yl)imidazo[1,2-b]pyridazine] fall in the same range of Kd: 0.5 to 100 nM for the first, 0.5 to 100 nM for the second.

`Fc1cc(-c2cnc3ccc(-c4ccncc4)nn23)ccc1CN1CCOCC1` [Compound 78, 4-(2-fluoro-4-(6-(pyridin-4-yl)imidazo[1,2-b]pyridazin-3-yl)benzyl)morpholine] and `Fc1cc(-c2cnc3ccc(-c4ccncc4)nn23)ccc1CN1CCCCC1` [Compound 79, 3-(3-fluoro-4-(piperidin-1-ylmethyl)phenyl)-6-(pyridin-4-yl)imidazo[1,2-b]pyridazine] fall in the same range of Kd: 101 to 500 nM for the first, 101 to 500 nM for the second.

`Cc1cc(-c2ccc3ncc(-c4ccc(N5CCCCC5)nc4)n3n2)ccn1` [Compound 81, 6-(2-methylpyridin-4-yl)-3-(6-(piperidin-1-yl)pyridin-3-yl)imidazo[1,2-b]pyridazine] and `Cc1cc(-c2ccc3ncc(-c4ccc(CN5CCCCC5)cc4)n3n2)ccn1` [Compound 92, 6-(2-methylpyridin-4-yl)-3-(4-(piperidin-1-ylmethyl)phenyl)imidazo[1,2-b]pyridazine] fall in the same range of Kd: 101 to 500 nM for the first, 101 to 500 nM for the second.

`Cc1cc(-c2ccc3ncc(N4CCN(C5COC5)CC4)n3n2)ccn1` [Compound 84, 6-(2-methylpyridin-4-yl)-3-(4-(oxetan-3-yl)piperazin-1-yl)imidazo[1,2-b]pyridazine] and `CC(=O)N1CCN(c2cnc3ccc(-c4ccncc4)nn23)CC1` [Compound 85, 1-(4-(6-(pyridin-4-yl)imidazo[1,2-b]pyridazin-3-yl)piperazin-1-yl)ethan-1-one] fall in the same range of Kd: 501 to 10000 nM for the first, 501 to 10000 nM for the second.

`Cc1cc(-c2ccc3ncc(-c4ccc(CN5CCCC(F)(F)C5)cc4)n3n2)ccn1` [Compound 89, 3-(4-((3,3-difluoropiperidin-1-yl)methyl)phenyl)-6-(2-methylpyridin-4-yl)imidazo[1,2-b]pyridazine] and `Cc1cc(-c2ccc3ncc(-c4ccc(CN5CCC(C)(C)CC5)cc4)n3n2)ccn1` [Compound 93, 3-(4-((4,4-dimethylpiperidin-1-yl)methyl)phenyl)-6-(2-methylpyridin-4-yl)imidazo[1,2-b]pyridazine] fall in the same range of Kd: 101 to 500 nM for the first, 101 to 500 nM for the second.

First: Cc1cc(-c2ccc3ncc(-c4ccc(CN5CCOCC5)cc4)n3n2)ccn1 [Compound 90, 4-(4-(6-(2-methylpyridin-4-yl)imidazo[1,2-b]pyridazin-3-yl)benzyl)morpholine]
Second: Cc1cc(-c2ccc3ncc(-c4ccc(CN5C[C@@H]6C[C@@H]5CO6)cc4)n3n2)ccn1 [Compound 91, (1S,4R)-5-(4-(6-(2-methylpyridin-4-yl)imidazo[1,2-b]pyridazin-3-yl)benzyl)-2-oxa-5-azabicyclo[2.2.1]heptane]
The Kd of the first is higher: 101 to 500 nM for the first, 0.5 to 100 nM for the second. The second binds more tightly here.
